Experimental data reported in US11471502B2, “Neuroprotective peptide” (UNIVERSITY COLLEGE CARDIFF C[…], priority 2017, dated 2022).

Columns and labels:
[1] = system: embryonic striatal cultures; assay: TUNEL apoptosis in neuronal embryonic striatal cultures; format: cell-based, mouse
Description: Data are expressed as Mean±SEM, n=5. Two-way ANOVA Bonferroni post-hoc comparison **p<0.01.
Embryonic cultures (E16) were prepared from striata of WT mice, plated onto poly-L-lysine coated glass and kept for 10 days in culture medium as previously described (Fasano et al, Biol Psy 2009). Two different concentrations (20 μM and 50 μM) of CPP-RB5 and CPP-SCR peptides were added to the culture medium by the third day and replaced every day. On day 11, cells were fixed with 4% PFA pH 7.4 in PBS for 10 min.
The DeadEnd Colorimetric TUNEL System (Promega) was used to detect apoptotic cells in cultured cells labelling the fragmented DNA of apoptotic cells using a modified TUNEL assay. TUNEL staining was realized with diaminobenzide (DAB) following the manufacture's protocol. Sample areas were digitized through a video camera (Nicon) connected to a Zeiss microscope using a 20× objective. 4 areas were counted and averaged for each plate.

Tg2576 mice = assay: Contextual Fear Conditioning in Tg2576 mice; format: in vivo, mouse; conditions: 20 mg/kg i.p. before CFC training, retention 24 h later
Description: 7 months old Tg2576 mice and WT mice were treated with either CPP-SCR or CPP-RB5 (20 mg/kg, i.p.) before Contextual Fear Conditioning (CFC) training and tested for memory retention 24 h later. Contextual Fear (CF) memory impairment in Tg2576 mice is fully rescued by RB5 treatment. Values are reported as % of time spent freezing. Data are expressed as Mean±SEM. *p<0.05**p<0.01.
Mice protocol: after 120 sec of exploration, mice received 5 foot shocks (0.7 mA, 2-s duration, separated by 60-s intervals) delivered through the grid floor. Context Fear Memory was assessed 24 h later by returning mice for 5 min to the conditioning chamber and not delivering a foot shock.
(§1) For all protocols, freezing behavior served as a measure of conditioned fear to the context during the conditioning and retrieval tests of the behavioural procedures. This was video-recorded and quantified by an observer blind to the experimental group. One unit of freezing was defined as a continuous absence of movement other than that required for respiration in 1 s sampled every 10 s.

Lister Hooded rats = assay: Contextual Fear Conditioning after infusion into dorsal hippocampus; format: in vivo, rat
Description: (*p<0.05, **p<0.01, FLSD test).
The subjects were adult male Lister hooded rats weighing 280-350 g. They were housed in pairs, in holding rooms maintained at 21° C. on a reversed-light cycle (12 h light/dark; lights on at 10:00 P.M.). All experiments were conducted in the dark period of the rats. Food and water were freely available throughout the experiment. Steel double guide cannulae aimed at the dorsal hippocampus (AP−3.50, relative to bregma) were surgical implanted under anaesthesia at least one week prior to behavioural training and microinfusions. Bilateral infusions with either 2 mg/ml CPP-SCR or CPP-RB5, 20 min prior to conditioning (pH 7.0, […]) via the chronically indwelling cannula were carried out in awake rats using a syringe pump, connected to injectors (28 gauge, projecting 1 mm beyond the guide cannulae) by polyethylene tubing.
Conditioning was performed in one of two distinct contexts. These contexts were designed to differ in a number of distinctive characteristics including size, spatial location, odour and lighting.
Rat protocol: during the 3 min conditioning training trial, rats received a single scrambled footshock (0.5 mA for 2 s) 2 min after being placed into one of the conditioning contexts (CtxA). All rats were returned to the home cages after conditioning. Retrieval tests 3 hr (post-retrieval short-term memory, STM), or 2 days (long-term memory, LTM) after recall again consisted of exposing the rat to the conditioning context for 2 min.
as §1

[2] = 2 mg/ml bilateral dorsal CA1 infusion 20 min prior to conditioning
[3] = 2 mg/ml infusion into dorsal hippocampus prior to CFC

Molecule | apoptotic levels (TUNEL apoptotic nuclei) ([1]; higher dose (50 μM), 7 days, vs Scramble) | Contextual Fear (CF) memory impairment (% of time spent freezing) (Tg2576 mice) | STM and LTM (freezing at 3 hr and 2 days after training) (Lister Hooded rats; [2]) | post footshock (postUS) freezing behaviour during fear conditioning (Lister Hooded rats; [2]) | reduction of apoptosis compared to CPP-SCR values ([1]; 50 μM, 7 consecutive days, TUNEL) [%] | acquisition of contextual fear memory (Lister Hooded rats; [3]) | long-term fear memory (Lister Hooded rats; [3])
CSCC[C@H](NC(=O)[C@H](CCC(=O)O)NC(=O)[C@@H](NC(=O)[C@H](CCC(=O)O)NC(=O)CNC(=O)[C@@H]1CCCN1C(=O)[C@@H](NC(=O)CNC(=O)[C@@H]1CCCN1C(=O)CNC(=O)[C@@H](NC(=O)CNC(=O)[C@H](CCC(=O)O)NC(=O)[C@@H](NC(=O)[C@H](CCCNC(=N)N)NC(=O)[C@H](CCCNC(=N)N)NC(=O)[C@@H]1CCCN1C(=O)[C@H](CCC(=O)O)NC(=O)CNC(=O)CNC(=O)CNC(=O)CNC(=O)CNC(=O)[C@H](CCC(N)=O)NC(=O)[C@@H]1CCCN1C(=O)[C@@H]1CCCN1C(=O)[C@H](CCCNC(=N)N)NC(=O)[C@H](CCCNC(=N)N)NC(=O)[C@H](CCCNC(=N)N)NC(=O)[C@H](CCC(N)=O)NC(=O)[C@H](CCCNC(=N)N)NC(=O)[C@H](CCCNC(=N)N)NC(=O)[C@H](CCCCN)NC(=O)[C@H](CCCCN)NC(=O)[C@H](CCCNC(=N)N)NC(=O)CNC(C)=O)[C@@H](C)O)C(C)C)C(C)C)C(C)C)C(=O)N[C@H](C(=O)N[C@@H](CCCCN)C(=O)NCC(=O)N[C@@H](CCC(N)=O)C(=O)N1CCC[C@H]1C(=O)N[C@@H](Cc1ccccc1)C(=O)N[C@@H](CC(=O)O)C(=O)N[C@@H](C(=O)O)C(C)C)C(C)C [RB5] | significant reduction of apoptotic levels | fully rescued | increase in both STM and LTM | increase | – | – | –
GRKKRRQRRRPPQGGGGGEPRRTEGVGPGVPGEVEMVKGQPFDV (listed as Homo sapiens) [CPP-RB5] | – | rescued already present memory impairments in aged Tg2576 mice back to WT levels | – | – | 32 | enhanced | stronger long-term fear memory
